Source: patent US8883797B2, “Metalloenzyme inhibitor compounds” (Viamet Pharmaceuticals, Inc., priority 2011, dated 2014)
≈ marks a conversion by molar mass, not a printed value.

Assays:
[1] = test system: Puccinia recondita tritici; assay: Fungicidal activity vs. leaf rust on wheat plants (PUCCRT); type: in vivo, Puccinia recondita tritici=Puccinia triticina; conditions: 50 ppm spray on wheat (variety Yuma); inoculated the following day; severity evaluated 7-9 days later
Source text: D. Evaluation of Fungicidal Activity Vs. Leaf Rust (Causal Agent Puccinia recondita tritici=Puccinia triticina; Bayer Code PUCCRT).
Each pot contained 3-8 seedlings. These plants were sprayed until wet with the formulated test compounds. The compounds were formulated at 50 ppm in 10 vol. % acetone plus 90 vol. % Triton X water (deionized water 99.99 wt %+0.01 wt % Triton X100), giving a “formulated test compound.” Formulated test compounds were applied to plants using a turn table sprayer fitted with two opposing air atomization nozzles which delivered approximately 1500 L/ha of spray volume. On the following day, the leaves were inoculated with an aqueous spore suspension of Puccinia recondita tritici and the plants were kept in high humidity overnight to permit spores to germinate and infect the leaf. The plants were then transferred to a greenhouse until disease developed on untreated control plants. Disease severity was evaluated 7-9 days later, depending on the speed of disease development. Compounds 4(−), 9(+), 11, 13, 18, 21, 25, 26, 27, 28, 32, 34, 37, 38, 39, 42, 43, 48, 51, 52, 56, 57, and 59 were selected for testing against PUCCRT at 50 ppm. Compounds that provided >80% disease control at 50 ppm included 4(−), 9(+), 11, 13, 18, 21, 25, 26, 27, 28, 32, 34, 37, 38, 39, 42, 43, 48, 52, 56, and 57.

[2] = test system: Septoria tritici (ATCC 26517); assay: Minimum Inhibitory Concentration (MIC) (Septoria tritici), CLSI-based microdilution; type: cell-based; conditions: Zymoseptoria tritici, ATCC26517, 168 h; S. tritici ATCC 26517; 50% growth reduction; 7 days at 22 °C; read-out: Septoria Rating (MIC)
Protocol: C. Minimum Inhibitory Concentration (MIC) (Septoria tritici) Compounds of the present disclosure were assessed for their ability to inhibit the growth of a common strain of the fungal plant pathogen Septoria tritici (ATCC 26517) using a procedure based on a Clinical and Laboratory Standards Institute (CLSI) microdilution assay protocol for filamentous fungi. Stock solutions of the test compounds and standards were prepared in DMSO at 6400 μg/mL. Each stock solution was used to prepare a 2-fold dilution series ranging from 16 to 0.016 μg/mL (total of 11 compound concentrations) in RPMI-1640 (Roswell Park Memorial Institute) medium containing 3-(N-morpholino)propanesulfonic acid (MOPS) buffer and 2% DMSO. A 100 μL aliquot of the dilutions was added to columns 1 (16 μg/mL compound) through 11 (0.016 μg/mL compound) of a 96-well microtiter plate. This format was replicated in a second row of the microtiter plate. Thus, each microtiter plate could include 11 concentrations of four test or control compounds replicated twice. A 100 μL aliquot of RPMI-1640/MOPS/2% DMSO medium was added to column 12 (no compound control) of the microtiter plate. A fresh culture of S. tritici was used to prepare a solution of approximately 5×10^4 colony-forming units per milliliter (cfu/mL) in RPMI/MOPS medium without DMSO. A 100 μL aliquot of this solution was added to all 96 wells in the microtiter plate. […] The assay plates were incubated at 22° C. for seven days in the dark without shaking. […] In each case of Table 3 the rating scale is as follows: […]

[3] = test system: C. albicans; assay: Minimum Inhibitory Concentration (MIC) (C. albicans), CLSI M27-A2; type: cell-based; conditions: Candida albicans; about 50% growth reduction; approx. 48 h at 35 °C
Protocol: A. Minimum Inhibitory Concentration (MIC) (C. albicans) Compounds of the present disclosure were assessed for their ability to inhibit the growth of common strains of fungus, C. albicans using a standardized procedure (CLSI M27-A2). Stock solutions of the test compounds and standards were prepared in DMSO at 1,600 μg/mL (C. albicans). Eleven, serial, one-half dilutions of compounds were prepared in 96-well plates in RPMI+MOPS. The assay concentration ranges were 8-0.001 μg/mL (C. albicans). Cell suspensions of C. albicans were prepared and added to each well at concentrations of approximately 3.7×10^3 colony-forming-units per milliliter (cfu/mL). All testing was in duplicate. The inoculated plates were incubated for approximately 48 h at 35±1° C. At the completion of incubation the wells of each plate were evaluated visually for the presence of fungal growth. […] For QC purposes C. krusei isolate ATCC 6258 (4.0×10^3 cfu/mL) was included in the VOR assay.

SMILES | disease control [1] | MIC [2] | MIC [3]
OC(Cn1cnnn1)(c1ccc(F)cc1F)C(F)(F)c1cnc(CCc2ccc(F)cc2)cn1 (stereo not drawn) [Compound 52, 2-(2,4-Difluorophenyl)-1,1-difluoro-1-(5-(4-fluorophenethyl)pyrazin-2-yl)-3-(1H-tetrazol-1-yl)propan-2-ol] | > 80% | ≤ 0.5 µg/mL | –
OC(Cn1cnnn1)(c1ccc(F)cc1F)C(F)(F)c1ccc2cc(C(F)(F)F)ccc2n1 (stereo not drawn) [Compound 18, 2-(2,4-Difluorophenyl)-1,1-difluoro-3-(1H-tetrazol-1-yl)-1-(6-(trifluoromethyl)quinolin-2-yl)propan-2-ol] | > 80% | ≤ 0.5 µg/mL | –
OC(Cn1cnnn1)(c1ccc(Cl)cc1F)C(F)(F)c1cnc2cc(Cl)ccc2n1 (stereo not drawn) [Compound 34, 2-(4-Chloro-2-fluorophenyl)-1-(6-chloroquinoxalin-2-yl)-1,1-difluoro-3-(1H-tetrazol-1-yl)propan-2-ol] | > 80% | ≤ 0.5 µg/mL | –
OC(Cn1cnnn1)(c1ccc(F)cc1F)C(F)(F)c1cnc2cc(Br)ccc2n1 (stereo not drawn) [Compound 38, 1-(6-Bromoquinoxalin-2-yl)-2-(2,4-difluorophenyl)-1,1-difluoro-3-(1H-tetrazol-1-yl)propan-2-ol] | > 80% | ≤ 0.5 µg/mL | –
OC(Cn1cnnn1)(c1ccc(F)cc1F)C(F)(F)c1cc2ccc(Cl)cc2cn1 (stereo not drawn) [Compound 37, 1-(7-Chloroisoquinolin-3-yl)-2-(2,4-difluorophenyl)-1,1-difluoro-3-(1H-tetrazol-1-yl)propan-2-ol] | > 80% | ≤ 0.5 µg/mL | –
OC(Cn1cnnn1)(c1ccc(F)cc1F)C(F)(F)c1cnc(-c2ccc(Br)cc2)cn1 (stereo not drawn) [Compound 43, 1-(5-(4-Bromophenyl)pyrazin-2-yl)-2-(2,4-difluorophenyl)-1,1-difluoro-3-(1H-tetrazol-1-yl)propan-2-ol] | > 80% | ≤ 0.5 µg/mL | –
OC(Cn1cnnn1)(c1ccc(F)cc1F)C(F)(F)c1nc2ccc(Br)cc2s1 (stereo not drawn) [Compound 27, 1-(6-Bromobenzo[d]thiazol-2-yl)-2-(2,4-difluorophenyl)-1,1-difluoro-3-(1H-tetrazol-1-yl)propan-2-ol] | > 80% | ≤ 0.5 µg/mL | –
OC(Cn1cnnn1)(c1ccc(F)cc1F)C(F)(F)c1nc2ccc(Cl)cc2s1 (stereo not drawn) [Compound 11, 1-(6-Chlorobenzo[d]thiazol-2-yl)-2-(2,4-difluorophenyl)-1,1-difluoro-3-(1H-tetrazol-1-yl)propan-2-ol] | > 80% | ≤ 0.5 µg/mL | –
OC(Cn1cnnn1)(c1ccc(F)cc1F)C(F)(F)c1ccc2cc(Cl)ccc2n1 (stereo not drawn) [4(−), 1-(6-Chloroquinolin-2-yl)-2-(2,4-difluorophenyl)-1,1-difluoro-3-(1H-tetrazol-1-yl)propan-2-ol] | > 80% | ≤ 0.5 µg/mL | –
OC(Cn1cnnn1)(c1ccc(F)cc1F)C(F)(F)c1ccc(-c2ccc(OC(F)(F)F)cc2)nn1 (stereo not drawn) [Compound 57, 2-(2,4-Difluorophenyl)-1,1-difluoro-3-(1H-tetrazol-1-yl)-1-(6-(4-(trifluoromethoxy)phenyl)pyridazin-3-yl)propan-2-ol] | > 80% | ≤ 0.5 µg/mL | –
OC(Cn1cnnn1)(c1ccc(F)cc1)C(F)(F)c1ccc2cc(Cl)ccc2n1 (stereo not drawn) [Compound 32, 1-(6-Chloroquinolin-2-yl)-1,1-difluoro-2-(4-fluorophenyl)-3-(1H-tetrazol-1-yl)propan-2-ol] | > 80% | ≤ 0.5 µg/mL | –
OC(Cn1cnnn1)(c1ccc(F)cc1F)C(F)(F)c1ccc(Br)s1 (stereo not drawn) [Compound 13, 1-(5-Bromothiophen-2-yl)-2-(2,4-difluorophenyl)-1,1-difluoro-3-(1H-tetrazol-1-yl)propan-2-ol] | > 80% | ≤ 0.5 µg/mL | –
C[C@@H](c1ncncc1F)[C@](O)(Cn1cncn1)c1ccc(F)cc1F [Voriconazole, reference compound] | – | – | 0.016 µg/mL (≈ 0.0458 µM)
OC(Cn1cnnn1)(c1ccc(F)cc1F)C(F)(F)c1cnc(-c2ccc(OC(F)F)cc2)cn1 (stereo not drawn) [Compound 39, 1-(5-(4-(Difluoromethoxy)phenyl)pyrazin-2-yl)-2-(2,4-difluorophenyl)-1,1-difluoro-3-(1H-tetrazol-1-yl)propan-2-ol] | > 80% | ≤ 0.5 µg/mL | –
OC(Cn1cnnn1)(c1ccc(F)cc1F)C(F)(F)c1ccc2cc(C(F)F)ccc2n1 (stereo not drawn) [Compound 25, 1-(6-(Difluoromethyl)quinolin-2-yl)-2-(2,4-difluorophenyl)-1,1-difluoro-3-(1H-tetrazol-1-yl)propan-2-ol] | > 80% | ≤ 0.5 µg/mL | –
OC(Cn1cnnn1)(c1ccc(F)cc1F)C(F)(F)c1ccc2cc(Br)ccc2n1 (stereo not drawn) [9(+), 1-(6-Bromoquinolin-2-yl)-2-(2,4-difluorophenyl)-1,1-difluoro-3-(1H-tetrazol-1-yl)propan-2-ol] | > 80% | ≤ 0.5 µg/mL | –
OC(Cn1cnnn1)(c1ccc(F)cc1F)C(F)(F)c1ccc(-c2ccc(C(F)(F)F)cc2)nn1 (stereo not drawn) [Compound 56, 2-(2,4-Difluorophenyl)-1,1-difluoro-3-(1H-tetrazol-1-yl)-1-(6-(4-(trifluoromethyl)phenyl)pyridazin-3-yl)propan-2-ol] | > 80% | 0.5 to 1.5 µg/mL (≈ 1 to 3.01 µM) | –
OC(Cn1cnnn1)(c1ccc(F)cc1F)C(F)(F)c1cnc(-c2ccc(OC(F)(F)F)cc2)cn1 (stereo not drawn) [Compound 42, 2-(2,4-Difluorophenyl)-1,1-difluoro-3-(1H-tetrazol-1-yl)-1-(5-(4-(trifluoromethoxy)phenyl)pyrazin-2-yl)propan-2-ol] | > 80% | ≤ 0.5 µg/mL | –
OC(Cn1ncnn1)(c1cc(F)ccc1F)C(F)(F)c1ccc2cc(Cl)ccc2n1 (stereo not drawn) [Compound 28, 1-(6-Chloroquinolin-2-yl)-2-(2,5-difluorophenyl)-1,1-difluoro-3-(2H-tetrazol-2-yl)propan-2-ol] | > 80% | ≤ 0.5 µg/mL | –
OC(Cn1cnnn1)(c1ccc(F)cc1F)C(F)(F)c1ccc(-c2ccc(OCC(F)(F)F)cc2)nc1 (stereo not drawn) [Compound 36, 2-(2,4-Difluorophenyl)-1,1-difluoro-3-(1H-tetrazol-1-yl)-1-(6-(4-(2,2,2-trifluoroethoxy)phenyl)pyridin-3-yl)propan-2-ol] | – | 1.5 to 4 µg/mL (≈ 2.84 to 7.58 µM) | –
Cc1ccc2nc(C(F)(F)C(O)(Cn3cnnn3)c3ccc(F)cc3F)ccc2c1 (stereo not drawn) [Compound 26, 2-(2,4-Difluorophenyl)-1,1-difluoro-1-(6-methylquinolin-2-yl)-3-(1H-tetrazol-1-yl)propan-2-ol] | > 80% | ≤ 0.5 µg/mL | –
COc1ccc(-c2cnc(C(F)(F)C(O)(Cn3cnnn3)c3ccc(F)cc3F)cn2)cc1 (stereo not drawn) [Compound 48, 2-(2,4-Difluorophenyl)-1,1-difluoro-1-(5-(4-methoxyphenyl)pyrazin-2-yl)-3-(1H-tetrazol-1-yl)propan-2-ol] | > 80% | ≤ 0.5 µg/mL | –
OC(Cn1cnnn1)(c1ccc(F)cc1F)C(F)(F)c1ccc2cc(F)ccc2n1 (stereo not drawn) [Compound 17, 2-(2,4-Difluorophenyl)-1,1-difluoro-1-(6-fluoroquinolin-2-yl)-3-(1H-tetrazol-1-yl)propan-2-ol] | – | ≤ 0.5 µg/mL | –
OC(Cn1cnnn1)(c1ccc(F)cc1F)C(F)(F)c1ccc2cc(OC(F)(F)F)ccc2n1 (stereo not drawn) [Compound 21, 2-(2,4-Difluorophenyl)-1,1-difluoro-3-(1H-tetrazol-1-yl)-1-(6-(trifluoromethoxy)quinolin-2-yl)propan-2-ol] | > 80% | ≤ 0.5 µg/mL | –
